According to patent US5942508A, “Method for solubilizing pyridonecarboxylic acid solubilizer thereof and aqueous solution containing solubilized pyridonecarboxylic acid” (Senju Pharmaceutical Co., Ltd., priority 1997, dated 1999):
Values after ≈ are worked out from the molar mass of the structure shown.

What was measured:
[1] = Effect of arylcarboxylic acid on solubility of pyridonecarboxylic acid - 1 (Table 1); format: physicochemical; conditions: 0.1% aqueous sodium dihydrogenphosphate, 25° C., one week
Experimental: Experimental Example 1: Effect of arylcarboxylic acid on solubility of pyridonecarboxylic acid - 1
(§1) To a 0.1% aqueous sodium dihydrogenphosphate solution (100 ml) containing pranoprofen, ibuprofen or bromfenac was added norfloxacin or enoxacin in excess, and the pH thereof was adjusted to 7-8 with hydrochloric acid or sodium hydroxide. The mixture was shaken for one week at 25° C. and filtered through a 0.45 μm membrane filter, which was followed by the determination of a norfloxacin or enoxacin content by high performance liquid chromatography.

[2] = Effect of arylcarboxylic acid on solubility of pyridonecarboxylic acid - 2 (Table 2); format: physicochemical; conditions: 0.1% aqueous sodium dihydrogenphosphate, 25° C., one week
Experimental: Experimental Example 2: Effect of arylcarboxylic acid on solubility of pyridonecarboxylic acid - 2
as §1, with “2-naphthoic acid, 2-naphthylacetic acid” for “pranoprofen, ibuprofen”, “2-naphthoxyacetic acid” for “bromfenac”, “8-9” for “7-8”

[3] = Increase of solubility by addition of arylcarboxylic acid (Tables 1 to 3); format: physicochemical; conditions: about, addition of at least one arylcarboxylic acid (pranoprofen, ibuprofen, diclofenac, bromfenac, 2-naphthoic, 2-naphthylacetic, 2-naphthoxyacetic acid)
Experimental: as §1
as §1, with “2-naphthoic acid, 2-naphthylacetic acid” for “pranoprofen, ibuprofen”, “2-naphthoxyacetic acid” for “bromfenac”, “8-9” for “7-8”
as §1, with “ibuprofen, diclofenac, bromfenac, 2-naphthoic acid, 2-naphthylacetic acid” for “ibuprofen”, “2-naphthoxyacetic acid” for “bromfenac”, “lomefloxacin” for “norfloxacin or enoxacin”, “8-9” for “7-8”

[4] = physchem
[5] = Effect of arylcarboxylic acid on solubility of pyridonecarboxylic acid - 3 (Table 3); format: physicochemical; conditions: 0.1% aqueous sodium dihydrogenphosphate, 25° C., one week
Experimental: Experimental Example 3: Effect of arylcarboxylic acid on solubility of pyridonecarboxylic acid - 3
as §1, with “ibuprofen, diclofenac, bromfenac, 2-naphthoic acid, 2-naphthylacetic acid” for “ibuprofen”, “2-naphthoxyacetic acid” for “bromfenac”, “lomefloxacin” for “norfloxacin or enoxacin”, “8-9” for “7-8”

[6] = pH 7, bromfenac added, pH 7, 0.1% aqueous sodium dihydrogenphosphate
[7] = pH 7, ibuprofen added, pH 7, 0.1% aqueous sodium dihydrogenphosphate
[8] = pH 7, pranoprofen added, pH 7, 0.1% aqueous sodium dihydrogenphosphate
[9] = pH 7, without addition, pH 7, 0.1% aqueous sodium dihydrogenphosphate
[10] = pH 8, bromfenac added, pH 8, 0.1% aqueous sodium dihydrogenphosphate
[11] = pH 8, ibuprofen added, pH 8, 0.1% aqueous sodium dihydrogenphosphate
[12] = pH 8, pranoprofen added, pH 8, 0.1% aqueous sodium dihydrogenphosphate
[13] = pH 8, without addition, pH 8, 0.1% aqueous sodium dihydrogenphosphate
[14] = pH 8, 2-naphthoic acid added, pH 8, 0.1% aqueous sodium dihydrogenphosphate
[15] = pH 8, 2-naphthoxyacetic acid added, pH 8, 0.1% aqueous sodium dihydrogenphosphate
[16] = pH 8, 2-naphthylacetic acid added, pH 8, 0.1% aqueous sodium dihydrogenphosphate
[17] = pH 9, 2-naphthoic acid added, pH 9, 0.1% aqueous sodium dihydrogenphosphate
[18] = pH 9, 2-naphthoxyacetic acid added, pH 9, 0.1% aqueous sodium dihydrogenphosphate
[19] = pH 9, 2-naphthylacetic acid added, pH 9, 0.1% aqueous sodium dihydrogenphosphate
[20] = pH 9, without addition, pH 9, 0.1% aqueous sodium dihydrogenphosphate

SMILES	solubility thermodynamic at 168 h [1, 6]	solubility thermodynamic at 168 h [1, 7]	solubility thermodynamic at 168 h [1, 8]	solubility thermodynamic at 168 h [1, 9]	solubility thermodynamic at 168 h [1, 10]	solubility thermodynamic at 168 h [1, 11]	solubility thermodynamic at 168 h [1, 12]	solubility thermodynamic at 168 h [1, 13]	solubility thermodynamic at 168 h [2, 14]	solubility thermodynamic at 168 h [2, 15]	solubility thermodynamic at 168 h [2, 16]	solubility thermodynamic at 168 h [2, 13]	solubility thermodynamic at 168 h [2, 17]	solubility thermodynamic at 168 h [2, 18]	solubility thermodynamic at 168 h [2, 19]	solubility thermodynamic at 168 h [2, 20]	increase of solubility by addition of arylcarboxylic acid [3]	other results
CCn1cc(C(=O)O)c(=O)c2cc(F)c(N3CCNCC3)nc21 [enoxacin, 1-ethyl-6-fluoro-1,4-dihydro-4-oxo-7-(1-piperazinyl)-1,8-naphthyridine-3-carboxylic acid]	320 µg/mL (≈ 999 µM)	300 µg/mL (≈ 937 µM)	780 µg/mL (≈ 2440 µM)	260 µg/mL (≈ 812 µM)	350 µg/mL (≈ 1090 µM)	280 µg/mL (≈ 874 µM)	630 µg/mL (≈ 1970 µM)	250 µg/mL (≈ 780 µM)	540 µg/mL (≈ 1690 µM)	470 µg/mL (≈ 1470 µM)	420 µg/mL (≈ 1310 µM)	250 µg/mL (≈ 780 µM)	1190 µg/mL (≈ 3710 µM)	990 µg/mL (≈ 3090 µM)	830 µg/mL (≈ 2590 µM)	710 µg/mL (≈ 2220 µM)	1.5-3 times	solubility ([4]; 0.1% phosphate buffer, pH 7): 280 µg/mL (≈ 874 µM); solubility ([4]; 1.6% borate buffer, pH 6): 1700 µg/mL (≈ 5310 µM)
CCn1cc(C(=O)O)c(=O)c2cc(F)c(N3CCNC(C)C3)c(F)c21 (stereo not shown) [lomefloxacin, 1-ethyl-6,8-difluoro-1,4-dihydro-7-(3-methyl-1-piperazinyl)-4-oxo-3-quinolinecarboxylic acid]																	1.5-3 times	solubility thermodynamic at 168 h [5, 14]: 2300 µg/mL (≈ 6550 µM); solubility thermodynamic at 168 h [5, 15]: 2040 µg/mL (≈ 5810 µM); solubility thermodynamic at 168 h [5, 16]: 1800 µg/mL (≈ 5120 µM); solubility thermodynamic at 168 h ([5]; pH 8, diclofenac added, pH 8, 0.1% aqueous sodium dihydrogenphosphate): 1390 µg/mL (≈ 3960 µM); solubility thermodynamic at 168 h [5, 12]: 2140 µg/mL (≈ 6090 µM); solubility thermodynamic at 168 h [5, 13]: 1180 µg/mL (≈ 3360 µM); solubility thermodynamic at 168 h ([5]; pH 9, bromfenac added, pH 9, 0.1% aqueous sodium dihydrogenphosphate): 4700 µg/mL (≈ 13400 µM); solubility thermodynamic at 168 h ([5]; pH 9, diclofenac added, pH 9, 0.1% aqueous sodium dihydrogenphosphate): 3330 µg/mL (≈ 9480 µM); solubility thermodynamic at 168 h ([5]; pH 9, ibuprofen added, pH 9, 0.1% aqueous sodium dihydrogenphosphate): 3500 µg/mL (≈ 9960 µM); solubility thermodynamic at 168 h [5, 20]: 3000 µg/mL (≈ 8540 µM)
CCn1cc(C(=O)O)c(=O)c2cc(F)c(N3CCNCC3)cc21 [norfloxacin, 1-ethyl-6-fluoro-1,4-dihydro-4-oxo-7-(1-piperazinyl)-3-quinolinecarboxylic acid]	410 µg/mL (≈ 1280 µM)	430 µg/mL (≈ 1350 µM)	1810 µg/mL (≈ 5670 µM)	400 µg/mL (≈ 1250 µM)	540 µg/mL (≈ 1690 µM)	420 µg/mL (≈ 1320 µM)	810 µg/mL (≈ 2540 µM)	360 µg/mL (≈ 1130 µM)	920 µg/mL (≈ 2880 µM)	750 µg/mL (≈ 2350 µM)	580 µg/mL (≈ 1820 µM)	360 µg/mL (≈ 1130 µM)	1590 µg/mL (≈ 4980 µM)	1600 µg/mL (≈ 5010 µM)	2060 µg/mL (≈ 6450 µM)	1060 µg/mL (≈ 3320 µM)	1.5-3 times	solubility ([4]; 0.1% phosphate buffer, pH 8): 360 µg/mL (≈ 1130 µM); solubility ([4]; 1.6% borate buffer, pH 7): 390 µg/mL (≈ 1220 µM)
